The record followed here is patent US10106510B2, “Substituted isoxazoles for treating cancer” (EPIZYME, INC., priority 2014, dated 2018).

Structures are written as SMILES.

For this experiment, the target named is SMYD3 (Homo sapiens (Human), UniProt Q9H7B4). Description: SMYD3 biochemical assay (SMYD3 enzyme assay on MEKK2 protein substrate, scintillation proximity assay). The conditions noted are these: 3H-SAM, SPA, IC50 values are an average of n = 1 to n = 50, read-out: SMYD3 Biochem IC50. An excerpt: S-adenosylmethionine (SAM), S-adenosylhomocysteine (SAH), Tris, Tween20, dimethylsulfoxide (DMSO), bovine skin gelatin (BSG), and Tris(2-carboxyethyl)phosphine hydrochloride solution (TCEP) were purchased from Sigma-Aldrich at the highest level of purity possible. ^3H-SAM was purchase from American Radiolabeled Chemicals with a specific activity of 80 Ci/mmol. 384-well opaque white OptiPlates and SPA beads (Perkin Elmer, catalog # RPNQ0013) were purchased from PerkinElmer.
Chain of SMYD3 (Q9H7B4 whole entry): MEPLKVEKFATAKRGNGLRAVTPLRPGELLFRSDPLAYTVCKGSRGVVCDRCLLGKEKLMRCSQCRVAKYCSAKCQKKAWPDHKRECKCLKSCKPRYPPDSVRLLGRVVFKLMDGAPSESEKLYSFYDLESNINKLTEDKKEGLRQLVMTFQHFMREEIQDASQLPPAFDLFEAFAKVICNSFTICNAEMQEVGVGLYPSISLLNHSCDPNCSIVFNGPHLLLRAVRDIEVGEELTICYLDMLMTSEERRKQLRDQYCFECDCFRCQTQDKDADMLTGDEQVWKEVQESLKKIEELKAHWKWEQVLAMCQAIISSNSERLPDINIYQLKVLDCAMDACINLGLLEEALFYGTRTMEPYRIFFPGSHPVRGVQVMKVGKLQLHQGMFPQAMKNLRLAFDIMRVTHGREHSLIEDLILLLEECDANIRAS
N-terminally GST-tagged MEKK2 (MAP3K2) protein corresponding to reference sequence AAF63496.3 was purchased from Life Technologies (catalog # PV4010). […] Protein identity was confirmed by MS/MS analysis after proteolytic digestion. The protein sequence used was:
Full-length human SMYD3 isoform 1 (BAB86333) was inserted into a modified pET21b plasmid containing a His6 tag and TEV and SUMO cleavage sites. Because two common variants of SMYD3 exist in the population, site directed mutagenesis was subsequently performed to change amino acid 13 from an asparagine to a lysine, resulting in plasmid pEPZ533.
E. coli (BL21 codonplus RIL strain, Stratagene) were transformed with plasmid pEPZ553 by mixing competent cells and plasmid DNA and incubating on ice for 30minutes followed by heat shock at 42° C. for 1 minute and cooling on ice for 2 minutes. Transformed cells were grown and selected on LB agar with 100 μg/mL ampicillin and 17 μg/mL chloramphenicol at 37° C. overnight. A single clone was used to inoculate 200 mL of LB medium with 100 μg/mL ampicillin and 17 μg/mL chloramphenicol and incubated at 37° C. on an orbital shaker at 180 rpm. Once in log growth, the culture was diluted 1:100 into 2 L of LB medium and grown until OD600 was about 0.3 after which the culture was incubated at 15° C. and 160 rpm. Once OD600 reached about 0.4, IPTG was added to a final concentration of 0.1 mM and the cells were grown overnight at 15° C. and 160 rpm. Cells were harvested by centrifugation at 8000 rpm, for 4 minutes at 4° C. and stored at −80° C. for purification.
The column was washed with Buffer B (Buffer A plus 20 mM imidazole) and His-tagged SMYD3 was eluted with Buffer C (Buffer A plus 300 mM imidazole). The His tag, TEV and SUMO cleavage sites were removed generating native SMYD3 by addition of ULP1 protein at a ratio of 1:200 (ULP1:SMYD3). Imidazole was removed by dialysis overnight in Buffer A. The dialyzed solution was applied to a second Nickel column and the native SMYD3 protein was collected from the column flow-through. The flow-through was dialyzed in Buffer D (25 mM Tris, 5% glycerol, 5 mM β-mercaptoethanol, 50 mM NaCl, pH7.8) and ULP1 was removed using a Q sepharose fast flow column.
General Procedure for SMYD3 Enzyme Assays on MEKK2 Protein Substrate
The assays were all performed in a buffer consisting of 25 mM Tris-Cl pH 8.0, 1 mM TCEP, 0.005% BSG, and 0.005% Tween 20, prepared on the day of use. Compounds in 100% DMSO (1 ul) were spotted into a 384-well white opaque OptiPlate using a Bravo automated liquid handling platform outfitted with a 384-channel head (Agilent Technologies). DMSO (1 ul) was added to Columns 11, 12, 23, 24, rows A-H for the maximum signal control and 1 ul of SAH, a known product and inhibitor of SMYD3, was added to columns 11, 12, 23, 24, rows I-P for the minimum signal control. A cocktail (40 ul) containing the SMYD3 enzyme was added by Multidrop Combi (Thermo-Fisher). The compounds were allowed to incubate with SMYD3 for 30 min at room temperature, then a cocktail (10 ul) containing SAM and MEKK2 was added to initiate the reaction (final volume=51 ul).

In the case of `CN(C(=O)c1cc(C2CC2)on1)[C@H]1CC[C@@H](NC(=O)CCN)CC1` [compound 59, N-((1s,4s)-4-(3-aminopropanamido)cyclohexyl)-5-cyclopropyl-N-methylisoxazole-3-carboxamide], the half-inhibitory concentration (IC50) (as a rule, the concentration needed to halve the response being measured) worked out at 36.6 µM. As for `C[C@H](N)CC(=O)N[C@H]1CC[C@H](N(CCO)C(=O)c2cc(C3CC3)on2)CC1` [compound 51, N-((1S,4r)-4-((S)-3-aminobutanamido)cyclohexyl)-5-cyclopropyl-N-(2-hydroxyethyl)isoxazole-3-carboxamide], the concentration for half-maximal inhibition (IC50) came out at 13.8 µM. As for `C[C@@H](N)CC(=O)N[C@H]1CC[C@H](N(Cc2ccccc2)C(=O)c2cc(C3CC3)on2)CC1` [compound 45, N-((1R,4r)-4-((R)-3-aminobutanamido)cyclohexyl)-N-benzyl-5-cyclopropylisoxazole-3-carboxamide], the IC50 worked out at 8.22 µM. As to `O=C(CCNCc1ccccc1)N[C@H]1CC[C@H](NC(=O)c2cc(C3CC3)on2)CC1` [compound 18, N-((1r,4r)-4-(3-(benzylamino)propanamido)cyclohexyl)-5-cyclopropylisoxazole-3-carboxamide], the IC50 was 0.671 µM. With `NCCC(=O)N(CCCO)[C@H]1CC[C@H](NC(=O)c2cc(C3CC3)on2)CC1` [compound 38, N-((1r,4r)-4-(3-amino-N-(3-hydroxypropyl)propanamido)cyclohexyl)-5-cyclopropylisoxazole-3-carboxamide], the IC50 worked out at 1.2 µM. The result for `C[C@H](N)CC(=O)N[C@H]1CC[C@@H](N(C)C(=O)c2cc(C3CC3)on2)CC1` [compound 57, N-((1R,4s)-4-((S)-3-aminobutanamido)cyclohexyl)-5-cyclopropyl-N-methylisoxazole-3-carboxamide] reads 25.8 µM. With `NCC(O)C(=O)N[C@H]1CC[C@H](NC(=O)c2cc(C3CC3)on2)CC1` (some centres unmarked) [compound 27, N-((1r,4r)-4-(3-amino-2-hydroxypropanamido)cyclohexyl)-5-cyclopropylisoxazole-3-carboxamide], the IC50 was 0.567 µM. As for `CCc1cc(C(=O)N[C@H]2CC[C@H](N)C[C@H]2CC)no1` [compound 2, N-((1S,2R,4S)-4-amino-2-ethylcyclohexyl)-5-ethylisoxazole-3-carboxamide], the half-inhibitory concentration (IC50) came out at 2.44 µM. For the compound `NCCC(=O)N[C@H]1CC[C@H](N(CCO)C(=O)c2cc(C3CC3)on2)CC1` [compound 52, N-((1r,4r)-4-(3-aminopropanamido)cyclohexyl)-5-cyclopropyl-N-(2-hydroxyethyl)isoxazole-3-carboxamide], the IC50 was 16.8 µM. As to `CNCCC(=O)N[C@H]1CC[C@H](NC(=O)c2cc(C3CC3)on2)CC1` [compound 12, 5-cyclopropyl-N-((1r,4r)-4-(3-(methylamino)propanamido)cyclohexyl) isoxazole-3-carboxamide], the IC50 amounted to 0.867 µM.

Regarding `NCCCN[C@H]1CC[C@H](NC(=O)c2cc(C3CC3)on2)CC1` [compound 23, N-((1r,4r)-4-((3-aminopropyl)amino)cyclohexyl)-5-cyclopropylisoxazole-3-carboxamide], the IC50 was 0.342 µM. With `NC1CCC1C(=O)N[C@H]1CC[C@H](NC(=O)c2cc(C3CC3)on2)CC1` (some centres unmarked) [Cpd. No. 3, N-((1r,4r)-4-(2-amino-cyclobutane-1-carboxamido)cyclo-hexyl)-5-cyclopropylisoxazole-3-carboxamide] the figure was 0.545 µM. On to `NCCCS(=O)(=O)N[C@H]1CC[C@H](NC(=O)c2cc(C3CC3)on2)CC1` [Cpd. No. 34, N-((1r,4r)-4-((3-amino-propyl)sulfonamido)cyclohexyl)-5-cyclopropylisoxazole-3-carboxamide], for which the IC50 is 1.34 µM. For the compound `C[C@H](N)CC(=O)N[C@H]1CC[C@H](N(Cc2ccccc2)C(=O)c2cc(C3CC3)on2)CC1` [compound 53, N-((1S,4r)-4-((S)-3-aminobutanamido)cyclohexyl)-N-benzyl-5-cyclopropylisoxazole-3-carboxamide], the 50% inhibitory concentration (IC50) was found to be 19.7 µM. As to `O=C(CCN1CCNCC1)N[C@H]1CC[C@H](NC(=O)c2cc(C3CC3)on2)CC1` [compound 17, 5-cyclopropyl-N-((1r,4r)-4-(3-(piperazin-1-yl)propanamido)cyclohexyl)isoxazole-3-carboxamide], the IC50 stood at 1.15 µM.

Turning to `COCCN(C(=O)c1cc(C2CC2)on1)[C@H]1CC[C@H](NC(=O)C[C@H](C)N)CC1` [compound 49, N-((1S,4r)-4-((S)-3-aminobutanamido)cyclohexyl)-5-cyclopropyl-N-(2-methoxyethyl)isoxazole-3-carboxamide], the half-maximal inhibitory concentration (IC50) amounted to 19 µM. For `C[C@@H](N)CC(=O)N[C@H]1CC[C@H](N(CCc2ccccc2)C(=O)c2cc(C3CC3)on2)CC1` [compound 41, N-((1R,4r)-4-((R)-3-aminobutanamido)cyclohexyl)-5-cyclopropyl-N-phenethylisoxazole-3-carboxamide], the IC50 amounted to 5.71 µM. The result for `CC(C)CN(C(=O)c1cc(C2CC2)on1)[C@H]1CC[C@H](NC(=O)CCN)CC1` [compound 43, N-((1r,4r)-4-(3-aminopropanamido)cyclohcxyl)-5-cyclopropyl-N-isobutylisoxazole-3-carboxamide] reads 4.49 µM; that for `NCCC(=O)N[C@H]1CC[C@H](N(CCc2ccccc2)C(=O)c2cc(C3CC3)on2)CC1` [compound 42, N-((1r,4r)-4-(3-aminopropanamido)cyclohexyl)-5-cyclopropyl-N-phenethylisoxazole-3-carboxamide], 10.8 µM.

`NCCCN(C(=O)CCO)[C@H]1CC[C@H](NC(=O)c2cc(C3CC3)on2)CC1` [compound 36, N-((1r,4r)-4-(N-(3-aminopropyl)-3-hydroxypropanamido)cyclohexyl)-5-cyclopropylisoxazole-3-carboxamide]: the IC50 amounted to 7.03 µM.

For `C[C@@H](N)CC(=O)N[C@H]1CC[C@H](N(CCO)C(=O)c2cc(C3CC3)on2)CC1` [compound 50, N-((1R,4r)-4-((R)-3-aminobutanamido)cyclohexyl)-5-cyclopropyl-N-(2-hydroxyethyl)isoxazole-3-carboxamide], the IC50 was 14.5 µM. With `C[C@H](N)CC(=O)N[C@H]1CC[C@H](N(C)C(=O)c2cc(C3CC3)on2)CC1` [compound 58, N-((1S,4r)-4-((S)-3-aminobutanamido)cyclohexyl)-5-cyclopropyl-N-methylisoxazole-3-carboxamide] the figure was 6.11 µM; with `N[C@H]1CC[C@@H](C(=O)N[C@H]2CC[C@H](NC(=O)c3cc(C4CC4)on3)CC2)CC1` [compound 13, N-((1R,4r)-4-((1s,4S)-4-aminocyclohexane-1-carboxamido)cyclohexyl)-5-cyclopropylisoxazole-3-carboxamide], 0.352 µM; with `CCc1cc(C(=O)N[C@H]2CC[C@H](NC(=O)C[C@H](C)N)C[C@H]2CC)no1` (mixture of isomers) [compound 7, Mixture of N-((1S,2R,4S)-4-((S)-3-aminobutanamido)-2-ethylcyclohexyl)-5-ethylisoxazole-3-carboxamide and N-((1R,2S,4R)-4-((S)-3-aminobutanamido)-2-ethylcyclohexyl)-5-ethylisoxazole-3-carboxamide; (1S,2R,4S) isomer depicted], 0.17 µM. With `COCCN(C(=O)c1cc(C2CC2)on1)[C@H]1CC[C@H](NC(=O)C[C@@H](C)N)CC1` [compound 40, N-((1R,4r)-4-((R)-3-aminobutanamido)cyclohexyl)-5-cyclopropyl-N-(2-methoxyethyl)isoxazole-3-carboxamide] the figure was 9.69 µM; with `NCCS(=O)(=O)N[C@H]1CC[C@H](NC(=O)c2cc(C3CC3)on2)CC1` [compound 29, N-((1r,4r)-4-((2-aminoethyl)sulfonamido)cyclohexyl)-5-cyclopropylisoxazole-3-carboxamide], 2.9 µM.
